Assay results published in ChEMBL document CHEMBL1201862, “PubChem BioAssay data set” (2004).
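Briefly, cells in 96-well plates were exposed to five compound concentrations for 48 h, and endpoints were estimated by linear interpolation. The concentration for 50% growth inhibition is given as GI50.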 The source made the active and inactive calls. Rule as the data show it: active = GI50 up to about 1.1 µM and inactive = higher.

Legend:
Assay in all cases: DTP human tumour cell line panel, 48 h
786-0 = system: 786-0
A498 = system: A498
A549 = system: A549
ACHN = system: ACHN
BT-549 = system: BT-549
CAKI-1 = system: CAKI-1
CCRF-CEM = system: CCRF-CEM
EKVX = system: EKVX
HCC 2998 = system: HCC 2998
HCT-116 = system: HCT-116
HCT-15 = system: HCT-15
HL-60 = system: HL-60
HOP-62 = system: HOP-62
HOP-92 = system: HOP-92
HT-29 = system: HT-29
Hs-578T = system: Hs-578T
IGROV-1 = system: IGROV-1
K562 = system: K562
KM12 = system: KM12
LOX IMVI = system: LOX IMVI
M14 = system: M14
MCF7 = system: MCF7
MDA-MB-231 = system: MDA-MB-231
MDA-MB-435 = system: MDA-MB-435
MDA-N = system: MDA-N
MOLT-4 = system: MOLT-4
Malme-3M = system: Malme-3M
NCI-H226 = system: NCI-H226
NCI-H23 = system: NCI-H23
NCI-H460 = system: NCI-H460
NCI-H522 = system: NCI-H522
NCI/ADR-RES = system: NCI/ADR-RES
OVCAR-3 = system: OVCAR-3
OVCAR-4 = system: OVCAR-4
OVCAR-5 = system: OVCAR-5
OVCAR-8 = system: OVCAR-8
PC-3 = system: PC-3
RPMI-8226 = system: RPMI-8226
RXF 393 = system: RXF 393
SF-268 = system: SF-268
SF-295 = system: SF-295
SF-539 = system: SF-539
SK-MEL-28 = system: SK-MEL-28
SK-MEL-2 = system: SK-MEL-2
SK-MEL-5 = system: SK-MEL-5
SK-OV-3 = system: SK-OV-3
SN12C = system: SN12C
SNB-19 = system: SNB-19
SNB-75 = system: SNB-75
SR = system: SR
SW-620 = system: SW-620
T47D = system: T47D
TK-10 = system: TK-10
U-251 = system: U-251
UACC-257 = system: UACC-257
UACC-62 = system: UACC-62
UO-31 = system: UO-31
COLO 205 = system: COLO 205
DU-145 = system: DU-145

## Cc1cc(Cl)ccc1NC(=O)/C(Cc1nc2ccc(C(=O)c3ccccc3)cc2nc1O)=N/NC(=O)c1ccncc1
786-0
  GI50: > 100 µM (inactive)
A498
  GI50: > 100 µM (inactive)
A549
  GI50: > 100 µM (inactive)
ACHN
  GI50: > 100 µM (inactive)
BT-549
  GI50: > 100 µM (inactive)
CAKI-1
  GI50: > 100 µM (inactive)
CCRF-CEM
  GI50: > 100 µM (inactive)
EKVX
  GI50: > 100 µM (inactive)
HCC 2998
  GI50: > 100 µM (inactive)
HCT-116
  GI50: 50.6 µM (inactive)
HCT-15
  GI50: 92 µM
HL-60
  GI50: 95.9 µM (inactive)
HOP-62
  GI50: > 100 µM (inactive)
HOP-92
  GI50: > 100 µM (inactive)
HT-29
  GI50: > 100 µM (inactive)
Hs-578T
  GI50: > 100 µM (inactive)
IGROV-1
  GI50: > 100 µM (inactive)
K562
  GI50: 63.7 µM (inactive)
KM12
  GI50: 39.1 µM (inactive)
LOX IMVI
  GI50: > 100 µM (inactive)
M14
  GI50: > 100 µM (inactive)
MCF7
  GI50: > 100 µM (inactive)
MDA-MB-231
  GI50: > 100 µM (inactive)
MDA-MB-435
  GI50: 42.4 µM (inactive)
MDA-N
  GI50: 97.3 µM (inactive)
MOLT-4
  GI50: 64.3 µM (inactive)
Malme-3M
  GI50: > 100 µM (inactive)
NCI-H226
  GI50: 1.72 µM (inactive)
NCI-H23
  GI50: > 100 µM (inactive)
NCI-H460
  GI50: > 100 µM (inactive)
NCI-H522
  GI50: > 100 µM (inactive)
NCI/ADR-RES
  GI50: > 100 µM (inactive)
OVCAR-3
  GI50: > 100 µM (inactive)
OVCAR-4
  GI50: > 100 µM (inactive)
OVCAR-5
  GI50: > 100 µM (inactive)
OVCAR-8
  GI50: > 100 µM (inactive)
PC-3
  GI50: > 100 µM (inactive)
RPMI-8226
  GI50: > 100 µM (inactive)
RXF 393
  GI50: > 100 µM (inactive)
SF-268
  GI50: > 100 µM (inactive)
SF-295
  GI50: > 100 µM (inactive)
SF-539
  GI50: > 100 µM (inactive)
SK-MEL-28
  GI50: > 100 µM (inactive)
SK-MEL-2
  GI50: > 100 µM (inactive)
SK-MEL-5
  GI50: 92 µM (inactive)
SK-OV-3
  GI50: > 100 µM (inactive)
SN12C
  GI50: > 100 µM (inactive)
SNB-19
  GI50: > 100 µM (inactive)
SNB-75
  GI50: > 100 µM (inactive)
SR
  GI50: 21.7 µM (inactive)
SW-620
  GI50: > 100 µM (inactive)
T47D
  GI50: > 100 µM (inactive)
TK-10
  GI50: > 100 µM (inactive)
U-251
  GI50: > 100 µM (inactive)
UACC-257
  GI50: > 100 µM (inactive)
UACC-62
  GI50: 97.3 µM (inactive)
UO-31
  GI50: 53.8 µM (inactive)

## COc1ccccc1Cn1c2c(c3cc(O)ccc31)C(=O)c1ccccc1C2=O
786-0
  GI50: 13.3 µM (inactive)
A498
  GI50: 93.8 µM (inactive)
A549
  GI50: 19.5 µM (inactive)
BT-549
  GI50: > 100 µM (inactive)
CAKI-1
  GI50: 16.7 µM (inactive)
CCRF-CEM
  GI50: 37.5 µM (inactive)
COLO 205
  GI50: 61.9 µM (inactive)
DU-145
  GI50: 39.4 µM (inactive)
HCT-116
  GI50: 23.8 µM (inactive)
HCT-15
  GI50: 90.2 µM
HL-60
  GI50: > 100 µM (inactive)
HOP-62
  GI50: 16.1 µM (inactive)
HT-29
  GI50: > 100 µM (inactive)
Hs-578T
  GI50: 36.6 µM (inactive)
IGROV-1
  GI50: 16.6 µM (inactive)
K562
  GI50: > 100 µM (inactive)
KM12
  GI50: 70.6 µM (inactive)
LOX IMVI
  GI50: 12.4 µM (inactive)
M14
  GI50: > 100 µM (inactive)
MCF7
  GI50: 10.1 µM (inactive)
MDA-MB-231
  GI50: 12.4 µM (inactive)
MDA-MB-435
  GI50: 84.3 µM (inactive)
MDA-N
  GI50: > 100 µM (inactive)
MOLT-4
  GI50: > 100 µM (inactive)
Malme-3M
  GI50: > 100 µM (inactive)
NCI-H226
  GI50: 21.6 µM (inactive)
NCI-H23
  GI50: 20 µM (inactive)
NCI-H460
  GI50: 26.2 µM (inactive)
NCI/ADR-RES
  GI50: 11.3 µM (inactive)
OVCAR-3
  GI50: 28.9 µM (inactive)
OVCAR-4
  GI50: 3.21 µM (inactive)
OVCAR-5
  GI50: 10.4 µM (inactive)
OVCAR-8
  GI50: 11.7 µM (inactive)
PC-3
  GI50: 8.49 µM (inactive)
RPMI-8226
  GI50: 15.3 µM (inactive)
RXF 393
  GI50: 2.6 µM (inactive)
SF-268
  GI50: 19.7 µM (inactive)
SF-295
  GI50: 11.2 µM (inactive)
SF-539
  GI50: 12.7 µM (inactive)
SK-MEL-28
  GI50: 76.4 µM (inactive)
SK-MEL-2
  GI50: 38.6 µM (inactive)
SK-MEL-5
  GI50: 37.2 µM (inactive)
SK-OV-3
  GI50: 2.42 µM (inactive)
SN12C
  GI50: 22.8 µM (inactive)
SNB-19
  GI50: 27.1 µM (inactive)
SNB-75
  GI50: 19.2 µM (inactive)
SR
  GI50: 52.8 µM (inactive)
SW-620
  GI50: 79.4 µM (inactive)
TK-10
  GI50: 72.8 µM (inactive)
U-251
  GI50: 16 µM (inactive)
UACC-257
  GI50: > 100 µM (inactive)
UACC-62
  GI50: 17 µM (inactive)
UO-31
  GI50: 48 µM (inactive)

## COC(=O)[C@@H](N1C(=O)c2ccccc2C1=O)C1(C)CC(Cl)=NO1 (stereo partly drawn)
786-0
  GI50: 34.8 µM (inactive)
A498
  GI50: 34.7 µM (inactive)
A549
  GI50: 86.1 µM (inactive)
ACHN
  GI50: > 100 µM (inactive)
BT-549
  GI50: 42.7 µM (inactive)
CAKI-1
  GI50: 12.7 µM (inactive)
CCRF-CEM
  GI50: > 100 µM (inactive)
COLO 205
  GI50: > 100 µM (inactive)
DU-145
  GI50: 44 µM (inactive)
EKVX
  GI50: 38.8 µM (inactive)
HCC 2998
  GI50: > 100 µM (inactive)
HCT-116
  GI50: 75.5 µM (inactive)
HCT-15
  GI50: > 100 µM
HOP-62
  GI50: 17 µM (inactive)
HT-29
  GI50: > 100 µM (inactive)
Hs-578T
  GI50: 29.8 µM (inactive)
IGROV-1
  GI50: 17.7 µM (inactive)
K562
  GI50: > 100 µM (inactive)
KM12
  GI50: > 100 µM (inactive)
M14
  GI50: > 100 µM (inactive)
MCF7
  GI50: 53.6 µM (inactive)
MDA-MB-231
  GI50: 19.1 µM (inactive)
MDA-MB-435
  GI50: > 100 µM (inactive)
MDA-N
  GI50: > 100 µM (inactive)
Malme-3M
  GI50: > 100 µM (inactive)
NCI-H226
  GI50: 38.8 µM (inactive)
NCI-H23
  GI50: 48.3 µM (inactive)
NCI-H460
  GI50: > 100 µM (inactive)
NCI-H522
  GI50: 35 µM (inactive)
NCI/ADR-RES
  GI50: 26.8 µM (inactive)
OVCAR-3
  GI50: > 100 µM (inactive)
OVCAR-4
  GI50: > 100 µM (inactive)
OVCAR-5
  GI50: > 100 µM (inactive)
OVCAR-8
  GI50: 19.1 µM (inactive)
PC-3
  GI50: > 100 µM (inactive)
RPMI-8226
  GI50: > 100 µM (inactive)
RXF 393
  GI50: 41.5 µM (inactive)
SF-268
  GI50: 29.3 µM (inactive)
SF-295
  GI50: 28.1 µM (inactive)
SK-MEL-28
  GI50: > 100 µM (inactive)
SK-MEL-2
  GI50: > 100 µM (inactive)
SK-MEL-5
  GI50: > 100 µM (inactive)
SK-OV-3
  GI50: 33.8 µM (inactive)
SN12C
  GI50: 33 µM (inactive)
SNB-19
  GI50: 24.8 µM (inactive)
SNB-75
  GI50: 17.8 µM (inactive)
SW-620
  GI50: > 100 µM (inactive)
T47D
  GI50: 28.5 µM (inactive)
TK-10
  GI50: 31.1 µM (inactive)
U-251
  GI50: 26.2 µM (inactive)
UACC-257
  GI50: > 100 µM (inactive)
UACC-62
  GI50: > 100 µM (inactive)
UO-31
  GI50: > 100 µM (inactive)
